PubChem BioAssay (NCI)
Where “and” joins values, the source holds several entries; their conditions need not be identical. Equal values may be shown once.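 Values below derive from 48-hour exposures of cells grown in 96-well plates, with endpoints linearly interpolated between the two concentrations bracketing the appropriate inhibition level. GI50 is the concentration that inhibits growth by half. The concentration for full growth arrest is given as TGI.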

Key:
Test in all cases: growth of human tumour cells (NCI), 48 h
MCF7 breast = system: MCF7 breast
HCT-15 colon = system: HCT-15 colon
NCI-H522 lung = system: NCI-H522 lung
HOP-62 NSCLC = system: HOP-62 NSCLC
PC-3 prostate = system: PC-3 prostate
MDA-MB-435 = system: MDA-MB-435
NCI-H23 lung = system: NCI-H23 lung
KM12 colon = system: KM12 colon
SF-295 CNS = system: SF-295 CNS
HOP-92 NSCLC = system: HOP-92 NSCLC

Compound	TGI (MCF7 breast) [µM]	TGI (HCT-15 colon) [µM]	TGI (NCI-H522 lung) [µM]	TGI (HOP-62 NSCLC) [µM]	TGI (PC-3 prostate)	TGI (MDA-MB-435) [µM]	TGI (NCI-H23 lung) [µM]	TGI (KM12 colon)	TGI (SF-295 CNS) [µM]	TGI (HOP-92 NSCLC) [µM]	GI50 (MCF7 breast) [µM]	GI50 (HCT-15 colon)	GI50 (NCI-H522 lung)	GI50 (HOP-62 NSCLC)	GI50 (PC-3 prostate)	GI50 (MDA-MB-435)	GI50 (NCI-H23 lung)	GI50 (KM12 colon)	GI50 (SF-295 CNS)	GI50 (HOP-92 NSCLC) [µM]
COc1ccc(N2C(=O)C(=O)N(C)C2=O)c2ccccc12	> 10	> 10	> 10	> 10	> 10 µM	> 10	> 10	> 10 µM	> 10	–	–	–	–	–	–	–	–	–	–	–
CN(CC(=O)O)CC(=O)O	> 100	> 100	> 100	> 100	> 100 µM	> 100	> 100	> 100 µM	> 100	> 100	–	–	–	–	–	–	–	–	–	–
CC[C@@]1(O)C(=O)OCc2c1cc1n(c2=O)Cc2cc3c(CN(C)C)c(O)ccc3nc2-1	–	–	–	–	> 90.1 µM and 14.8 µM and 35 µM	–	–	7.58 µM and 15.1 µM and 12.2 µM	–	–	< 0.01	0.304 µM and 0.0813 µM and 0.67 µM	< 0.025 µM and 0.0206 µM and 0.0416 µM	0.0102 µM and 0.00621 µM and 0.0163 µM	0.0425 µM and 0.26 µM	0.0713 µM and 0.108 µM and 0.0243 µM	0.0088 µM and 0.0362 µM	0.15 µM and 0.413 µM and 0.35 µM	< 0.01 µM and 0.0104 µM and 0.0304 µM	–
O=S(=O)(Nc1nccs1)c1ccc([As](=O)(O)O)cc1	> 100	> 100	> 100	> 100	> 100 µM	> 100	> 100	> 100 µM	> 100	> 100	–	–	–	–	–	–	–	–	–	–
Clc1ccc(C2CC(c3cccc(Nc4ccncc4)c3)=NN2c2ccccc2)cc1 (centres undefined)	3.44	2.83	3.24	5.15	3.12 µM	3.07	3.7	3.28 µM	3.07	2.82	1.65	1.42 µM	1.57 µM	2.31 µM	1.6 µM	1.62 µM	1.92 µM	1.7 µM	1.66 µM	1.4
COC1=CC(=O)c2c(c(COC(C)=O)cn2C)C1=O	2.5	0.0522	0.0405	–	1.35 µM	0.28	0.417	0.763 µM	0.0692	0.822	–	–	–	–	–	–	–	–	–	–
CC(C(=O)NCCNC(=O)CCCC(=O)N(C)O)C(=O)NCCNC(=O)CCCC(=O)N(C)O	> 100	> 100	> 100	> 100	> 100 µM	> 100	> 100	> 100 µM	> 100	> 100	–	–	–	–	–	–	–	–	–	–
CC(C)=CC1C(COC(=O)c2ccccc2Cl)C1(C)C (centres undefined)	–	75.4	49.5	> 100	> 100 µM	> 100	> 100	99.1 µM	> 100	86.3	–	–	–	–	–	–	–	–	–	–
CC1(CO)C(O)CCC2(C)C1C(O)CC1CC3CC12CCC3(O)CO (centres undefined)	> 225	> 225	> 225	> 225	–	–	> 225	> 225 µM	> 104	> 225	–	–	–	–	–	–	–	–	–	–
CCN(CC)CCCC(C)Nc1c2ccc(Cl)cc2nc2cc(Cl)ccc12 (centres undefined)	9.49	9.85	17.5	22.1	–	–	20.8	9.29 µM	8.49	9.64	–	–	–	–	–	–	–	–	–	–
O=[N+]([O-])c1ccc(Cc2nc3cc4ccccc4cc3[nH]2)cc1C(F)(F)F	55.5	> 100	70.6	27.3	> 100 µM	21	25.7	30.3 µM	29	41.1	–	–	–	–	–	–	–	–	–	–
CC(=O)Nc1c2sscc-2n(C)c1=O	1.69	2.66	2.65	3.15	2.97 µM	2.51	2.28	2.6 µM	2.65	3.7	–	–	–	–	–	–	–	–	–	–
CNCCCn1c2c(c3ccc(Cl)cc3c1=O)C(=O)c1cc(OC)cnc1-2	–	–	–	–	2.33 µM	2.32	–	2.43 µM	1.38	2.75	–	–	–	–	1.02 µM	1.07 µM	–	1.1 µM	0.132 µM	1.19
CSC1=C(SC)C(=O)c2cn(C)c(=O)cc2C1=O	4.49	4.78	2.19	24.8	26.2 µM	3.35	11.1	48.3 µM	26	2.12	–	–	–	–	–	–	–	–	–	–
CC(C)C(=O)Nc1ccc(-c2nc(-c3cccc(OCCN4CCOCC4)c3)c(-c3ccnc(Br)c3)[nH]2)cc1	4.92	4.67	48.7	14.5	14.5 µM	10	18	> 100 µM	2.88	7.68	1.89	2.02 µM	3.26 µM	2.94 µM	3.08 µM	2.92 µM	3.12 µM	3.2 µM	1.09 µM	2.32
